Data from patent publication US20250325498A1, “8-OHdG CONCENTRATION DECREASE ACCELERATOR, MALONDIALDEHYDE (MDA) CONCENTRATION DECREASE ACCELERATOR, ZIP4 CONCENTRATION INCREASE ACCELERATOR, OR SERUM ZINC CONCENTRATION INCREASE ACCELERATOR FOR JEJUNUM” (WATANABE OYSTER LABORATORY, CO., LTD., priority 2022, published 2025).

Tests used:
Format in all cases: in vivo, rat
[1] = tested on: 8-OHdG; assay: Jejunal 8-OHdG concentration in rats fed a low-zinc diet; conditions: male Slc/SD rats, low-zinc diet 7 days, gavage on days 5 and 6 (0.5 mL/100 g B.W.), organs harvested 24 hours after day 6 dose; low-zinc diet group 9.31±0.29, standard diet group 6.82±0.56
Experimental: (§1) Male Slc/SD rats (4 weeks old) were used as experimental animals. (Grouping and Diet)
(§2) The rats were divided into the following groups, and the diets were as follows.
(§3) Low-zinc diet group (n=6): Free intake of a low-zinc diet (The concentration of zinc in the low-zinc diet: 3.9 mg zinc/kg diet) Note that the zinc concentration of the low-zinc diet is assumed to be 2.5 mg zinc/kg diet to 10 mg zinc/kg diet.)
(§4) From the start date of the regular breeding, the standard diet was fed to the standard diet group, and the low-zinc diet was fed to four groups including the low-zinc diet group, the low-zinc diet+precipitation fraction group, the low-zinc diet+supernatant fraction group, and the low-zinc diet+synthetic DHMBA group. They were fed by free intake. On days 5 and 6, 0.5% methyl cellulose solution was given to the standard diet group and the low-zinc diet group by gavage administration. The Pacific oyster extraction supernatant fraction was given to the low-zinc diet+supernatant fraction group by gavage administration. The Pacific oyster extraction precipitation fraction was given to the low-zinc diet+precipitation fraction group by gavage administration. The synthetic DHMBA was given to the low-zinc diet+synthetic DHMBA group by gavage administration. […]
(§5) The jejunal SOD concentration, MDA concentration, 8-OHdG concentration, ZIP4 concentration, and serum zinc concentration were measured. […]

[2] = tested on: MDA; assay: Jejunal MDA concentration in rats fed a low-zinc diet; conditions: male Slc/SD rats, gavage on days 5 and 6, result in words, low-zinc diet group 6.67±0.47, standard diet group 4.53±0.26 mg/g of jejunum
Experimental: as §1, §2, §3, §4, §5

[3] = tested on: ZIP4; assay: Jejunal ZIP4 concentration in rats fed a low-zinc diet; conditions: male Slc/SD rats, low-zinc diet 7 days, gavage on days 5 and 6, organs harvested 24 hours after day 6 dose; low-zinc diet group 4.38±0.33, standard diet group 8.89±0.71
Experimental: as §1, §2, §3, §4, §5

[4] = Serum zinc concentration in rats fed a low-zinc diet; conditions: male Slc/SD rats, gavage on days 5 and 6, result in words
Experimental: as §1, §2, §3, §4, §5

Compound: COc1c(O)cc(CO)cc1O [synthetic DHMBA, 3,5-dihydroxy-4-methoxybenzyl alcohol]
- jejunal 8-OHdG concentration [1]: 7.81±0.49 ng/g of jejunum
- jejunal MDA concentration compared with low-zinc diet group [2]: decrease in MDA
- jejunal ZIP4 concentration [3]: 6.44 ± 0.76 pg/mg
- serum zinc concentration compared with low-zinc diet group [4]: significantly higher
